Source: patent US4176180A (priority 1977, dated 1979)
Where a name gives a salt, the structure may show the parent alone.

What was measured:
[1] = human, in vivo, 2 h
Diplococcus pneumoniae = details: gram positive cocci; cited from earlier work
Str. pyogenes = details: gram positive cocci; cited from earlier work
Str. non-groupable = details: gram positive cocci; cited from earlier work
Str. faecalis = details: gram positive cocci; cited from earlier work
Staph. aureus = details: gram positive cocci; cited from earlier work
Staph. epidermidis = details: gram positive cocci; cited from earlier work
Neisseria menigitidis = details: gram negative cocci; cited from earlier work
Neisseria gonorrhoeae = details: gram negative cocci; cited from earlier work
[2] = tested on: Corynebacterium diphteriae; details: gram positive bacilli; cited from earlier work
Listeria monocytogenes = details: gram positive bacilli; cited from earlier work
Erysipelothrix insidiosa = details: gram positive bacilli; cited from earlier work
Plectridium tetani = details: gram positive bacilli; cited from earlier work
Clostridium perfringens = details: gram positive bacilli; cited from earlier work
Haemophilus influenzae = details: gram negative bacilli; cited from earlier work
Bordetella pertussis = details: gram negative bacilli; cited from earlier work
Pasteurella multocida = details: gram negative bacilli; cited from earlier work
Brucella melitensis = details: gram negative bacilli; cited from earlier work
Bacteroides fragilis = details: gram negative bacilli; cited from earlier work
Mycoplasma pneumoniae = details: mycoplasmae; cited from earlier work
clinical = details: human, in vivo
[3] = serum concentration of erythromycin two hours after ethyl-succinyl erythromycin; format: in vivo, human (ill persons)
[4] = in some patients, after prolonged treatment; cited from earlier work
[5] = Serum concentration of erythromycine, Average

## CC[C@H]1OC(=O)[C@H](C)[C@@H](O[C@H]2C[C@@](C)(OC)[C@@H](O)[C@H](C)O2)[C@H](C)[C@@H](O[C@@H]2O[C@H](C)C[C@H](N(C)C)[C@H]2O)[C@](C)(O)C[C@@H](C)C(=O)[C@H](C)[C@@H](O)[C@]1(C)O [E, erythromycin]
[1]
  Serum concentration of erythromycine, Average: 988 ng/mL
Diplococcus pneumoniae
  MINIMUM INHIBITING CONCENTRATIONS: 0.01-0.2 […] MILILITER OF MEDIUM
Str. pyogenes
  MINIMUM INHIBITING CONCENTRATIONS: 0.02-0.2 […] MILILITER OF MEDIUM
Str. non-groupable
  MINIMUM INHIBITING CONCENTRATIONS: 0.02-3.1 […] MILILITER OF MEDIUM
Str. faecalis
  MINIMUM INHIBITING CONCENTRATIONS: 0.6-3.1 […] MILILITER OF MEDIUM
Staph. aureus
  MINIMUM INHIBITING CONCENTRATIONS: 0.01-1.6 […] MILILITER OF MEDIUM
Staph. epidermidis
  MINIMUM INHIBITING CONCENTRATIONS: 0.2-3.1 […] MILILITER OF MEDIUM
Neisseria menigitidis
  MINIMUM INHIBITING CONCENTRATIONS: 0.2-1.6 […] MILILITER OF MEDIUM
Neisseria gonorrhoeae
  MINIMUM INHIBITING CONCENTRATIONS: 0.04-0.4 […] MILILITER OF MEDIUM
[2]
  MINIMUM INHIBITING CONCENTRATIONS: 0.2-3.1 […] MILILITER OF MEDIUM
Listeria monocytogenes
  MINIMUM INHIBITING CONCENTRATIONS: 0.2 […] MILILITER OF MEDIUM
Erysipelothrix insidiosa
  MINIMUM INHIBITING CONCENTRATIONS: 0.06 […] MILILITER OF MEDIUM
Plectridium tetani
  MINIMUM INHIBITING CONCENTRATIONS: 0.2-0.6 […] MILILITER OF MEDIUM
Clostridium perfringens
  MINIMUM INHIBITING CONCENTRATIONS: 0.1-0.2 […] MILILITER OF MEDIUM
Haemophilus influenzae
  MINIMUM INHIBITING CONCENTRATIONS: 0.4-3.1 […] MILILITER OF MEDIUM
Bordetella pertussis
  MINIMUM INHIBITING CONCENTRATIONS: 0.2 […] MILILITER OF MEDIUM
Pasteurella multocida
  MINIMUM INHIBITING CONCENTRATIONS: 0.8 […] MILILITER OF MEDIUM
Brucella melitensis
  MINIMUM INHIBITING CONCENTRATIONS: 0.3 […] MILILITER OF MEDIUM
Bacteroides fragilis
  MINIMUM INHIBITING CONCENTRATIONS: 0.8-6.2 […] MILILITER OF MEDIUM
Mycoplasma pneumoniae
  MINIMUM INHIBITING CONCENTRATIONS: 0.004-0.016 […] MILILITER OF MEDIUM
clinical; Maximum concentrations of erythromycin, Average m
  Cmax: 996 ng/mL
clinical; [5]
  concentration at 1 h: 321 ng/mL
  concentration at 1.5 h: 610 ng/mL
  concentration at 2 h: 988 ng/mL

## CCOC(=O)CCC(=O)O[C@H]1[C@H](O[C@@H]2[C@@H](C)[C@H](O[C@H]3C[C@@](C)(OC)[C@@H](O)[C@H](C)O3)[C@@H](C)C(=O)O[C@H](CC)[C@@](C)(O)[C@H](O)[C@@H](C)C(=O)[C@H](C)C[C@@]2(C)O)O[C@H](C)C[C@@H]1N(C)C [ES, ethyl-succinyl erythromycin]
[3]; two hours following administration
  regularity of the serum concentrations obtained: irregularity in the serum concentrations obtained
[3]; two hours following administration of 600 mg, sum over 9 persons
  Serum concentration of erythromycin, Total: 15360 ng/mL

## CCC(=O)O[C@H]1[C@H](O[C@@H]2[C@@H](C)[C@H](O[C@H]3C[C@@](C)(OC)[C@@H](O)[C@H](C)O3)[C@@H](C)C(=O)O[C@H](CC)[C@@](C)(O)[C@H](O)[C@@H](C)C(=O)[C@H](C)C[C@@]2(C)O)O[C@H](C)C[C@@H]1N(C)C [estolate, lauryl sulfate of the propionic ester of erythromycin]
[4]
  hepatotoxicity: not inconsiderable hepatotoxicity
